# Read-outs that look alike come from different tables or passages of the source.
# Assays:
# [1] = test system: attachment of HIV-1HxBc2 to U87-CD+-CXCR4+ cells; experiment: Temperature shift assay (viral attachment); type: cell-based
# Experimental: The entry process can be divided into two temperature-dependent stages, with receptor and coreceptor binding occurring over the temperature range 0-37° C., while the fusion process only occurs at temperatures above 25° C. (Frey, et al., 1995, J. Virol. 69:1462-1472). Based upon differential ranges in temperatures at which binding and fusion/entry occur, a novel assay was developed to detect viral attachment in the presence or absence of inhibitors. Recombinant single-round infective HIV-1 virions are incubated with permissive cells at 4° C. for 2 hours to only allow the initial receptor/coreceptor engagement. Unattached virions, and the compound, are then removed by washing the cells with cold media followed by centrifugation at 1200 rpm for 4 min at 4° C. Cells are replenished with fresh media and transferred to 37° C. After 48 hour of incubation, the level of infection is measured by a luciferase activity as in the standard single-round infection assay. […] Conversely, the small molecule CD4-mimetic NBD-556, which is known to disrupt the gp120-CD4 interaction, reduces the level of infection to 40% of vehicle (DMSO) alone (FIG. 11). […] Moreover, this analysis may be extended to encompass viruses that utilize CCR5 for entry.
# [2] = test system: amphotropic murine leukemia virus (AMLV); experiment: microbe, parasite or virus in culture; type: cell-based; settings: single round infection assay, in words
# [3] = test system: HIV-1JR-CSF; experiment: microbe, parasite or virus in culture; type: cell-based
# [4] = test system: HIV-1HxBc2; experiment: microbe, parasite or virus in culture; type: cell-based
# [5] = test system: HIV-1 isolate AC10.0.29; experiment: microbe, parasite or virus in culture; type: cell-based; settings: Human immunodeficiency virus 1; isolate AC10.0.29, tropism R5
# [6] = test system: HIV-1 isolate BaL; experiment: microbe, parasite or virus in culture; type: cell-based; settings: Human immunodeficiency virus 1, tropism R5
# [7] = test system: HIV-1 isolate JR-FL; experiment: microbe, parasite or virus in culture; type: cell-based; settings: Human immunodeficiency virus 1, tropism R5
# [8] = test system: HIV-2 CDC310319; experiment: Replication assay in primary human PBMCs, HIV-2 isolate; type: cell-based
# [9] = test system: HIV-1 94US_3393IN (subtype B); experiment: HIV-1 replication assay in primary human PBMCs, isolate 94US_3393IN
# [10] = test system: HIV-1 91US004 (subtype B); experiment: HIV-1 replication assay in primary human PBMCs, isolate 91US004; type: cell-based
# [11] = in vitro; type: cell-based; settings: human
# Experimental: Moreover, this assay was performed using healthy, primary cells to gain further insight into potential toxicities of the compound towards natural target cells. Additionally, as a key issue in the development of novel HIV drugs is their ability to inhibit the replication of genetically diverse isolates (especially isolates from the most globally prevalent subtypes A, B, C, and D), it was chosen to assess the potency of SC26 to inhibit the replication of isolates from subtypes A, B, C, and D in primary human peripheral blood mononuclear cells (PBMCs). Concomitantly, toxicity of SC26 to the PBMCs was assessed using an MTT assay. As can be observed from the IC50 values, the potency of SC26 against different isolates ranges quite dramatically, most likely reflecting differences in the binding site between subtypes.
# [12] = test system: HIV-1 99UG_A07412M1 (subtype D); experiment: HIV-1 replication assay in primary human PBMCs, isolate 99UG_A07412M1; type: cell-based
# [13] = test system: HIV-1 92UG037 (subtype A); experiment: HIV-1 replication assay in primary human PBMCs, isolate 92UG037; type: cell-based
# [14] = test system: HIV-1 98US_MSC5016 (subtype C); experiment: HIV-1 replication assay in primary human PBMCs, isolate 98US_MSC5016; type: cell-based
# [15] = Human immunodeficiency virus 1, read-out: IC50 JR-CSF
# [16] = Human immunodeficiency virus 1, read-out: IC50 HxBc2
# [17] = Human immunodeficiency virus 1, PBMC, human PBMCs
smiles,measurement,setting,value
"CC1(C)CC(NC(=O)C(=O)Nc2ccc(Cl)cc2)CC(C)(C)N1 [NBD-556, N1-(4-chlorophenyl)-N2-(2,2,6,6-tetramethyl-4-piperidinyl)-ethanediamide, reference compound]",level of infection relative to vehicle (DMSO) alone,"[1]; virions with cells at 4° C. for 2 hours, wash, 37° C. 48 hour, FIG. 11",40%
"COc1cnc(Cl)c2[nH]cc(C(=O)C(=O)N3CC4CN(C(=O)c5ccccc5)CC4C3)c12 (stereo not shown) [SC07, 1-(5-benzoylhexahydropyrrolo[3,4-c]pyrrol-2(1H)-yl)-2-(7-chloro-4-methoxy-1H-pyrrolo[2,3-c]pyridin-3-yl)ethane-1,2-dione]",specificity to HIV-1 (inhibition of AMLV-pseudotyped HIV-1),[2],no inhibition of AMLV-pseudotyped HIV-1
same,IC50,[3]; [15],980 ± 60 nM
same,IC50,[4]; [16],16800 ± 6200 nM
"COc1ncc(OC)c2c(C(=O)C(=O)N3CC4CN(C(=O)c5ccccc5)CC4C3)c[nH]c12 (stereo not shown) [SC08, 1-(5-benzoylhexahydropyrrolo[3,4-c]pyrrol-2(1H)-yl)-2-(4,7-dimethoxy-1H-pyrrolo[2,3-c]pyridin-3-yl)ethane-1,2-dione]",specificity to HIV-1 (inhibition of AMLV-pseudotyped HIV-1),[2],no inhibition of AMLV-pseudotyped HIV-1
same,IC50,"[3]; read-out: IC50 JR-CSF, single round infection assay",90 ± 10 nM
same,IC50,[4]; [16],190 ± 80 nM
"COc1cnc(-n2cnc(C)n2)c2[nH]cc(C(=O)C(=O)N3CC4C=NN(c5ccccc5)C4C3)c12 (stereo not shown) [SC12, 1-(4-methoxy-7-(3-methyl-1H-1,2,4-triazol-1-yl)-1H-pyrrolo[2,3-c]pyridin-3-yl)-2-(1-phenyl-3a,4,6,6a-tetrahydropyrrolo[3,4-c]pyrazol-5(1H)-yl)ethane-1,2-dione]",IC50,[5],488 ± 47 nM
same,IC50,[6],3500 ± 300 nM
same,block of viral attachment,"[1]; temperature shift assay, in words",does not appear to block viral attachment
same,IC50,[3]; Human immunodeficiency virus 1,13 ± 3 nM
same,IC50,[3]; [15],8 ± 2 nM
same,IC50,[4]; Human immunodeficiency virus 1,24 ± 3 nM
same,IC50,[4]; [16],80 ± 20 nM
same,IC50,[7],106 ± 52 nM
"COc1cnc(-n2cnc(C)n2)c2[nH]cc(C(=O)C(=O)NCC3CN(C(=O)c4ccccc4)C3)c12 [SC14, N-((1-benzoylazetidin-3-yl)methyl)-2-(4-methoxy-7-(3-methyl-1H-1,2,4-triazol-1-yl)-1H-pyrrolo[2,3-c]pyridin-3-yl)-2-oxoacetamide]",IC50,[3]; [15],2500 ± 400 nM
same,IC50,[4]; [16],1200 ± 400 nM
"COc1cnc(-n2cnc(C)n2)c2[nH]cc(C(=O)C(=O)N3CC(CCC(=O)c4ccccc4)C3)c12 [SC15, 1-(4-methoxy-7-(3-methyl-1H-1,2,4-triazol-1-yl)-1H-pyrrolo[2,3-c]pyridin-3-yl)-2-(3-(3-oxo-3-phenylpropyl)azetidin-1-yl)ethane-1,2-dione]",IC50,[3]; [15],2 ± 0.1 nM
same,IC50,[4]; [16],3 ± 0.5 nM
"COc1cnc(-n2cnc(C)n2)c2[nH]cc(C(=O)C(=O)N3CC(CSC(=O)c4ccccc4)C3)c12 [SC16, S-((1-(2-(4-methoxy-7-(3-methyl-1H-1,2,4-triazol-1-yl)-1H-pyrrolo[2,3-c]pyridin-3-yl)-2-oxoacetyl)azetidin-3-yl)methyl) benzothioate]",IC50,[3]; [15],100 ± 20 nM
same,IC50,[4]; [16],150 ± 30 nM
"COc1cnc(-n2cnc(C)n2)c2[nH]cc(C(=O)C(=O)N(C)C3CN(C(=O)c4ccccc4)C3)c12 [SC18, N-(1-benzoylazetidin-3-yl)-2-(4-methoxy-7-(3-methyl-1H-1,2,4-triazol-1-yl)-1H-pyrrolo[2,3-c]pyridin-3-yl)-N-methyl-2-oxoacetamide]",IC50,[3]; [15],1300 ± 200 nM
same,IC50,[4]; [16],102000 ± 160000 nM
"COc1cnc(-n2cnc(C)n2)c2[nH]cc(C(=O)C(=O)N3CC4CN(C(=O)C5=CCCCC5)CC4C3)c12 (stereo not shown) [SC26, 1-(5-(cyclohex-1-ene-1-carbonyl)hexahydropyrrolo[3,4-c]pyrrol-2(1H)-yl)-2-(4-methoxy-7-(3-methyl-1H-1,2,4-triazol-1-yl)-1H-pyrrolo[2,3-c]pyridin-3-yl)ethane-1,2-dione]",IC50,"[8]; Human immunodeficiency virus 2, PBMC, HIV-2 CDC310319, human PBMCs",> 100000 nM
same,effect on the replication of an HIV-2 isolate,"[8]; human PBMCs, in words",no effect
same,Antiviral index (TC50/IC50),[9],">166,666"
same,Antiviral index (TC50/IC50),[10],>513
same,IC50,[10]; [17],195 ± 12 nM
same,CC50 at 7 days,[11],> 100000 nM
same,Antiviral index (TC50/IC50),[12],>204
same,IC50,[12]; [17],490 ± 60 nM
same,IC50,[3]; [15],2 ± 0.1 nM
same,IC50,[4]; Human immunodeficiency virus 1,0.6 ± 0.01 nM
same,IC50,[4]; [16],0.6 ± 0.08 nM
same,Antiviral index (TC50/IC50),[13],>3.97
same,IC50,[13]; [17],25200 ± 6900 nM
same,Antiviral index (TC50/IC50),[14],>25.6
same,IC50,[14]; [17],3900 ± 800 nM
"COc1cnc(-n2cnc(C)n2)c2[nH]cc(C(=O)C(=O)N3CC=C(CNC(=O)c4ccccc4)CC3)c12 [SC45, N-((1-(2-(4-methoxy-7-(3-methyl-1H-1,2,4-triazol-1-yl)-1H-pyrrolo[2,3-c]pyridin-3-yl)-2-oxoacetyl)-1,2,3,6-tetrahydropyridin-4-yl)methyl)benzamide]",IC50,[3]; [15],150 ± 9 nM
same,IC50,[4]; [16],100 ± 30 nM

# Source: patent US9920073B2, “Compositions useful for inhibiting HIV-1 infection and methods using same” (Drexel University, priority 2013, dated 2018)
